Experimental data from patent US20150141438A1, “METHODS FOR DELAYING OR PREVENTING THE ONSET OF TYPE 1 DIABETES” (Pharmacyclics, Inc., priority 2013, published 2015).

Legend:
[1] = system: anti-insulin B cells; assay: BTK inhibitor treatment of 125Tg/NOD mice (Ibrutinib chow); B cell subsets assessed by flow cytometry in freshly isolated organs; format: in vivo, mouse
Method: After 5-10 weeks, spleen, draining pancreatic lymph nodes, and pancreas were harvested and flow cytometry was used to analyze B cell subsets. […] Mice were 12-13 weeks old at time of analysis.
B cell subsets were assessed by flow cytometry in freshly isolated organs as outlined below.
BM was eluted from long bones, and spleens and pancreatic draining lymph nodes (PLN) were macerated with HBSS (Invitrogen) plus 10% FBS (HyClone). Red blood cells were lysed using Tris-NH4Cl. Freshly isolated pancreata were digested with 3 mL of 1 mg/mL collagenase P diluted in HBSS for 30 min at 37° C., then tissue was disrupted using an 18-gauge needle. Ice cold HBSS plus 10% FBS was immediately added to inhibit collagenase activity. Cells were directly analyzed by flow cytometry. Flow cytometry Ab reagents were reactive with B220 (6B2), IgM^a (DS-1), CD19 (1D3), CD21 (7G6), CD23 (B3B4), CD93 (AA4.1), or IgM chain-specific) (Life Technologies). Biotin N-hydroxysuccinimide ester (Sigma) was used to biotinylate human insulin (Sigma) at pH 8.0 in bicine buffer. Streptavidin reagents (BD Biosciences) were used to detect biotinylated reagents. 7AAD (BD Biosciences) was used to identify dead cells. Sample acquisition was performed using an LSR II flow cytometer (BD Biosciences) and FlowJo software (Treestar) was used for analysis.
BTK is a complex protein with adapter as well as kinase functions that have independent effects on various aspects of B cell development and function. […] Flow cytometry analysis of freshly isolated splenocytes was used to identify B cell subsets as in FIG. 3.

[2] = Example 3: prediabetic individual administered ibrutinib and cyclosporine A; format: in vivo; conditions: individual with impaired fasting glycemia and impaired glucose tolerance; ibrutinib administered with cyclosporine A
Method: An individual presents with impaired fasting glycemia and impaired glucose tolerance. The individual is determined to be prediabetic.

[3] = spleen, Ibrutinib vs. placebo chow, 125Tg/NOD mice

## C=CC(=O)N1CCC[C@@H](n2nc(-c3ccc(Oc4ccccc4)cc3)c3c(N)ncnc32)C1 [Ibrutinib, (R)-1-(3-(4-amino-3-(4-phenoxyphenyl)-1H-pyrazolo[3,4-d]pyrimidin-1-yl)piperidin-1-yl)prop-2-en-1-one]
[1]; 125Tg/NOD mice treated with Ibrutinib
  trafficking of anti-insulin B lymphocytes to pancreatic draining lymph nodes or pancreas: does not block their trafficking to pancreatic draining lymph nodes or pancreas
[1]; 125Tg/NOD mice, Ibrutinib chow 5-10 weeks, 38 mg/kg per day, placebo 28.6±8.3, no difference
  non-B lymphocyte numbers in spleen: 25.1±8.5 ×10^6
[1]; 125Tg/NOD mice, Ibrutinib chow 5-10 weeks, average 38 mg/kg per day, placebo 22.2±5.8, p<0.001
  number of B lymphocytes (B220+ IgM+ live lymphocytes) in spleen: 10.1±2.8 ×10^6
[1]; 125Tg/NOD mice, Ibrutinib chow 5-10 weeks, placebo 17±3, p=0.51, no difference
  T2 B cell subset numbers in the spleen: 49±76 ×10^4
[1]; 125Tg/NOD mice, Ibrutinib chow 5-10 weeks, placebo 43±6, p=0.0015
  pre-marginal zone B cell numbers in the spleen: 17±5 ×10^4
[1]; 125Tg/NOD mice, Ibrutinib chow 5-10 weeks, placebo 345±38, p<0.001
  follicular B cell numbers in the spleen: 41±37 ×10^4
[1]; 125Tg/NOD mice, Ibrutinib chow 5-10 weeks, placebo 1283±217, p=0.002
  marginal zone B cell numbers in the spleen: 443±164 ×10^4
[1]; 125Tg/NOD mice, Ibrutinib chow, placebo 5.2±7.7, p=0.36, no significant difference
  number of B cells in the pancreas: 0.66±0.80 ×10^4
[1]; 125Tg/NOD mice, Ibrutinib chow, placebo 21±8, p=0.49, no significant difference
  number of B cells in the pancreatic draining lymph nodes: 26±9 ×10^4
[1]; [3]
  reduction in follicular B cell numbers: 88%
  reduction in marginal zone B cell numbers: 65%
  reduction in pre-marginal zone B cell numbers: 60%
[2]
  development of Type 1 Diabetes: does not develop Type 1 Diabetes
